Data published in paper PMC10889159, “Synthesis and Antitumor Activity Evaluation of Novel Echinatin Derivatives with a 1,3,4-Oxadiazole Moiety” (International Journal of Molecular Sciences, 2024).

Columns and labels:
K562 = assay: CCK8 antiproliferative assay, K562; type: cell-based; settings: Homo sapiens, CCK8, 48 h, mean ± SD, n = 3
Experimental: (§1) For all biological assays, all of the synthesized compounds were dissolved in DMSO. The cytotoxicity of all of the target compounds against the HCT116, K562, KU812, and HT-29 cells was determined by an CCK8 assay in vitro using adriamycin and echinatin as the controls. About 3000 cells per well were seeded in a 96-well plate and incubated for 24 h. Then, the cells were stimulated with different concentrations of test compounds for 48 h. The CCK8 solution (100 µL 0.5 mg/mL^−1) was added to each well, and the cells were incubated for another 4 h. Then, the absorbance of the samples was measured at 450 nm. The IC50 values were calculated according to the Logit method after obtaining the inhibitory rate. All experiments were repeated three times.

KU812 = assay: CCK8 antiproliferative assay, KU812; type: cell-based; settings: Homo sapiens, CCK8, 48 h, mean ± SD, n = 3
Experimental: as §1

HT-29 = assay: CCK8 antiproliferative assay, HT-29; type: cell-based; settings: Homo sapiens, CCK8, 48 h, mean ± SD, n = 3
Experimental: as §1

HCT116 = assay: CCK8 antiproliferative assay, HCT116; type: cell-based; settings: Homo sapiens, HCT-116; CCK8, 48 h, mean ± SD, n = 3
Experimental: as §1

c-KIT = c-KIT (Homo sapiens, UniProt P10721); assay: Biochemical c-KIT activity assay (ADP-Glo); settings: 20 μM ATP, read-out: IC50 for c-KIT inhibition
c-KIT, sequence (P10721 26-976): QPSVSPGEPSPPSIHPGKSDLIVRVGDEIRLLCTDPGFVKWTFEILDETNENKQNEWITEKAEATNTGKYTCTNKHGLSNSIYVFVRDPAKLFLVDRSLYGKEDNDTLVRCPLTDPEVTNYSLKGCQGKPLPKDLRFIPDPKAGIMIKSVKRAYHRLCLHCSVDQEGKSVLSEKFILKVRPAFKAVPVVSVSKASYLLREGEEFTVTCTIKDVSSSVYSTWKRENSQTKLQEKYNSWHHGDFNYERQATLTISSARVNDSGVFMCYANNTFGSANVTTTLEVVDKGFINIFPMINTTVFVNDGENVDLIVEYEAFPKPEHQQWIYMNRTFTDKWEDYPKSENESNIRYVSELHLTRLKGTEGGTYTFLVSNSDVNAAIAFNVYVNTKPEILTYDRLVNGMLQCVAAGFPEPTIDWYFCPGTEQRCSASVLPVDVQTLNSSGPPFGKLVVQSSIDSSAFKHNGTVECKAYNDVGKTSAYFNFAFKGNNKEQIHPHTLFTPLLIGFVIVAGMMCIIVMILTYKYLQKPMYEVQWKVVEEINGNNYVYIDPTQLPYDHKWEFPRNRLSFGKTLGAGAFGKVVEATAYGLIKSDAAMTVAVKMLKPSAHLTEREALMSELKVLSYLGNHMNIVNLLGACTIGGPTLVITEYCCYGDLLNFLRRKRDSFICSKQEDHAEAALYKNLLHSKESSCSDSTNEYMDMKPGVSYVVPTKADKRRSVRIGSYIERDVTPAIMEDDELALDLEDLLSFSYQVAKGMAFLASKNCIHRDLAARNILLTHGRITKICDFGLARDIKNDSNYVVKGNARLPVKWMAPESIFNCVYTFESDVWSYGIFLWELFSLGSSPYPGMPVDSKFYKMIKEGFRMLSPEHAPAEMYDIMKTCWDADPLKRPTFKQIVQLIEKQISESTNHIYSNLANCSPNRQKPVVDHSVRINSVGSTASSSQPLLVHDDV
Experimental: The enzymatic activities of c-KIT were determined by in vitro kinase assays using the ADP-Glo reagent (Promega, Madison, WI, USA) according to the manufacturer’s instructions. Briefly, 250 ng of c-KIT protein was incubated with compounds in 10 μL of reaction buffer (40 mM Tris−HCl, pH 7.4, 2 mM MnCl2, 2 mM DTT, 20 mM MgCl2, 0.1 mg/mL bovine serum albumin, 1 mM Na3VO4) containing 20 μΜ ATP and 40 μM poly (Glu4-Tyr1) as substrates at 30 °C for 150 min. The ADP-Glo reagent was then added, and the mixture was incubated at 25 °C for 40 min. The kinase detection reagent was added for another 30 min at 25 °C. The converted ADP was determined by luminescence measurement using a Wallac Vector 1420 multilabel counter (PerkinElmer).

Compound	IC50 (K562)	IC50 (HT-29)	IC50 (HCT116)	melting point	IC50 (c-KIT)	IC50 (KU812)
COc1cc(O)ccc1/C=C/C(=O)c1ccc(OCc2nnc(Nc3c(F)cccc3F)o2)cc1 [Compound T17, (E)-1-{4-{{5-[(2,6-Difluorophenyl)amino]-1,3,4-oxadiazol-2-yl}methoxy}phenyl}-3-(4-hydroxy-2-methoxy-phenyl)propenone]	> 30 µM	> 30 µM	> 30 µM	193 to 194.3 °C	–	> 30 µM
COc1ccc(Nc2nnc(COc3ccc(C(=O)/C=C/c4ccc(O)cc4OC)cc3)o2)cc1 [Compound T2, (E)-3-(4-Hydroxy-2-methoxyphenyl)-1-{4-{{5-[(4-methoxyphenyl)amino]-1,3,4-oxadiazol-2-yl}methoxy}phenyl}p-ropenone]	> 30 µM	8.78 ± 0.12 µM	3.97 ± 0.53 µM	212.6 to 213.6 °C	–	13.3 ± 0.39 µM
FC(F)(F)c1ccc(CNc2ccc(Cc3c[nH]c4ncccc34)cn2)cc1 [PLX647, reference compound]	–	–	–	–	0.068 µM	–
COc1cc(O)ccc1/C=C/C(=O)c1ccc(OCc2nnc(Nc3ccc(Cl)cc3)o2)cc1 [Compound T7, (E)-1-{4-{{5-[(4-Chlorophenyl)amino]-1,3,4-oxadiazol-2-yl}methoxy}phenyl}-3-(4-hydroxy-2-methoxyphen-yl)propenone]	> 30 µM	> 30 µM	2.08 ± 0.54 µM	211.4 to 212.1 °C	–	17.5 ± 1.77 µM
COc1cc(O)ccc1/C=C/C(=O)c1ccc(O)cc1 [Echinatin]	> 30 µM	10.4 ± 0.87 µM	4.54 ± 0.76 µM	–	–	13.8 ± 0.33 µM
COc1cc(O)ccc1/C=C/C(=O)c1ccc(OCc2nnc(Nc3cccc(Cl)c3)o2)cc1 [Compound T14, (E)-1-{4-{{5-[(3-Chlorophenyl)amino]-1,3,4-oxadiazol-2-yl}methoxy}phenyl}-3-(4-hydroxy-2-methoxyphen-yl)propenone]	> 30 µM	13.2 ± 0.53 µM	9.83 ± 1.98 µM	225 to 225.9 °C	–	> 30 µM
COc1cc(O)ccc1/C=C/C(=O)c1ccc(OCc2nnc(Nc3ccc(C)cc3C)o2)cc1 [Compound T15, (E)-1-{4-{{5-[(2,4-Dimethylphenyl)amino]-1,3,4-oxadiazol-2-yl}methoxy}phenyl}-3-(4-hydroxy-2-methoxy-phenyl)propenone]	> 30 µM	> 30 µM	> 30 µM	192.9 to 194.1 °C	–	> 30 µM
COc1cc(O)ccc1/C=C/C(=O)c1ccc(OCc2nnc(Nc3ccc(F)cc3)o2)cc1 [Compound T6, (E)-1-{4-{{5-[(4-Fluorophenyl)amino]-1,3,4-oxadiazol-2-yl}methoxy}phenyl}-3-(4-hydroxy-2-methoxyphen-yl)propenone]	> 30 µM	> 30 µM	4.39 ± 0.71 µM	211.8 to 214.1 °C	–	16.9 ± 1.58 µM
COc1cc(O)ccc1/C=C/C(=O)c1ccc(OCc2nnc(Nc3ccc(F)cc3F)o2)cc1 [Compound T16, (E)-1-{4-{{5-[(2,4-Difluorophenyl)amino]-1,3,4-oxadiazol-2-yl}methoxy}phenyl}-3-(4-hydroxy-2-methoxy-phenyl)propenone]	> 30 µM	> 30 µM	> 30 µM	223.4 to 223.9 °C	–	> 30 µM
COc1cc(O)ccc1/C=C/C(=O)c1ccc(OCc2nnc(Nc3cccc(C)c3)o2)cc1 [Compound T10, (E)-3-(4-Hydroxy-2-methoxyphenyl)-1-{4-{[5-(m-tolylamino)-1,3,4-oxadiazol-2-yl]methoxy}phenyl}propen-one]	> 30 µM	> 30 µM	7.62 ± 1.23 µM	187.6 to 190.8 °C	–	> 30 µM
CCOc1ccccc1Nc1nnc(COc2ccc(C(=O)/C=C/c3ccc(O)cc3OC)cc2)o1 [Compound T11, (E)-1-{4-{{5-[(2-Ethoxyphenyl)amino]-1,3,4-oxadiazol-2-yl}methoxy}phenyl}-3-(4-hydroxy-2-methoxyphe-nyl)propenone]	> 30 µM	> 30 µM	> 30 µM	175.4 to 188.3 °C	–	> 30 µM
COc1cc(O)ccc1/C=C/C(=O)c1ccc(OCc2nnc(Nc3ccc(OC(F)(F)F)cc3)o2)cc1 [Compound T5]	> 30 µM	3.64 ± 0.21 µM	3.94 ± 0.33 µM	227.6 to 228.4 °C	–	12.45 ± 0.02 µM

Further lines, with some results ahead:

IC50 (K562)	IC50 (HT-29)	IC50 (HCT116)	melting point	IC50 (c-KIT)	Compound	IC50 (KU812)
> 30 µM	13.9 ± 0.67 µM	10.2 ± 0.87 µM	191.3 to 191.8 °C	–	COc1cc(O)ccc1/C=C/C(=O)c1ccc(OCc2nnc(Nc3ccccc3Cl)o2)cc1 [Compound T13, (E)-1-{4-{{5-[(2-Chlorophenyl)amino]-1,3,4-oxadiazol-2-yl}methoxy}phenyl}-3-(4-hydroxy-2-methoxyphen-yl)propenone]	> 30 µM
> 30 µM	> 30 µM	10 ± 0.93 µM	206.5 to 209.2 °C	–	COc1cc(O)ccc1/C=C/C(=O)c1ccc(OCc2nnc(Nc3ccccc3C)o2)cc1 [Compound T9]	> 30 µM
> 30 µM	> 30 µM	> 30 µM	172.3 to 174.6 °C	–	COc1cc(O)ccc1/C=C/C(=O)c1ccc(OCc2nnc(Nc3c(Cl)cccc3Cl)o2)cc1 [Compound T18, (E)-1-{4-{{5-[(2,6-Dichlorophenyl)amino]-1,3,4-oxadiazol-2-yl}methoxy}phenyl}-3-(4-hydroxy-2-methoxy-phenyl)propenone]	> 30 µM
22.05 ± 0.12 µM	7.1 ± 0.45 µM	4.85 ± 0.32 µM	186.1 to 189.4 °C	–	COc1cc(O)ccc1/C=C/C(=O)c1ccc(OCc2nnc(Nc3ccc(C)cc3)o2)cc1 [Compound T1, (E)-3-(4-Hydroxy-2-methoxyphenyl)-1-{4-{[5-(p-tolylamino)-1,3,4-oxadiazol-2-yl]methoxy}phenyl}propen-one]	9.55 ± 0.17 µM
> 30 µM	12.8 ± 0.98 µM	6.14 ± 1.45 µM	186.2 to 187.4 °C	–	COc1cc(O)ccc1/C=C/C(=O)c1ccc(OCc2nnc(Nc3ccccc3F)o2)cc1 [Compound T12, (E)-1-{4-{{5-[(2-Fluorophenyl)amino]-1,3,4-oxadiazol-2-yl}methoxy}phenyl}-3-(4-hydroxy-2-methoxyphen-yl)propenone]	> 30 µM
19.48 ± 0.12 µM	4.94 ± 0.25 µM	6.51 ± 0.19 µM	197.1 to 198.5 °C	0.613 µM	COc1cc(O)ccc1/C=C/C(=O)c1ccc(OCc2nnc(Nc3ccc(C(C)(C)C)cc3)o2)cc1 [Compound T8]	12 ± 1.28 µM
15.5 ± 1.09 µM	5.16 ± 0.11 µM	2.47 ± 0.56 µM	200.1 to 200.4 °C	0.237 µM	CCOc1ccc(Nc2nnc(COc3ccc(C(=O)/C=C/c4ccc(O)cc4OC)cc3)o2)cc1 [Compound T3]	17.2 ± 0.67 µM
4.22 ± 0.44 µM	2.7 ± 0.71 µM	1.5 ± 0.19 µM	–	–	COc1cccc2c1C(=O)c1c(O)c3c(c(O)c1C2=O)C[C@@](O)(C(=O)CO)C[C@@H]3O[C@H]1C[C@H](N)[C@H](O)[C@H](C)O1 [Adriamycin, reference compound]	4.14 ± 0.53 µM
